Data taken from patent publication US10059694B2, “2-aminopyrimidine compound and pharmaceutical composition and use thereof” (Shanghai Institute of Materia Medica, Chinese Academy of …, priority 2014, dated 2018).

How the values were obtained:
EGFR^wt = molecular target: T1, EGFR^wt (Homo sapiens, UniProt P00533); assay: kinase inhibitory activity test (ELISA), EGFR^WT; type: biochemical; conditions: ATP 5 μM, 1 hour at 37° C.
T1 construct: purchased Millipore
Procedure, shortened: (§1)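 ELISA on poly(Glu,Tyr)4:1-coated plates; kinase reaction with 5 μM ATP (final) in 50 mM HEPES pH 7.4, 50 mM MgCl2, 5 mM MnCl2, 0.2 mM Na3VO4, 1 mM DTT, 1 h at 37° C. Phosphotyrosine detected via PY99/HRP and OPD at 490 nm; IC50 by four-parameter fit.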

IGF-1R = molecular target: T2, IGF-1R (Homo sapiens, UniProt P08069); assay: kinase inhibitory activity test (ELISA), IGF-1R; type: biochemical; conditions: ATP 5 μM, 1 hour at 37° C.
T2 construct: purchased Millipore
Procedure, shortened: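 Poly(Glu,Tyr)4:1-coated plates; kinase reacted 1 h at 37 °C with 5 μM ATP (final) in HEPES pH 7.4 buffer with Mg2+/Mn2+. Phosphotyrosine detected by PY99 and HRP anti-mouse IgG with OPD at 490 nm; IC50 from four-parameter fit.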

EGFR^T790M/L858R = molecular target: T3, EGFR^T790M/L858R (Homo sapiens, UniProt P00533, L858R/T790M); assay: kinase inhibitory activity test (ELISA), EGFR^T790M/L858R; type: biochemical; conditions: ELISA, ATP 5 μM, 1 hour at 37° C.
T3 construct: purchased Millipore
Procedure, shortened: as §1

[1] = test system: human epidermal carcinoma A431 cell line; assay: SRB proliferation assay, A431 cells; type: cell-based; conditions: A-431, SRB, 72 h, read-out: IC50 A431
Procedure, shortened: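 A431 cells in log phase are allowed to adhere for 24 h, then exposed to compound for 72 h in triplicate alongside DMSO controls. Cells are fixed with cold 10% TCA, stained with SRB, dye is solubilised in 10 mM Tris pH 10.5, and OD is read at 515 nm.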

[2] = test system: human non-small cell lung cancer NCI-H1975 cell line; assay: SRB proliferation assay, NCI-H1975 cells; type: cell-based; conditions: NCI-H1975, SRB, 72 h, read-out: IC50 NCI-H1975
Procedure, shortened: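 NCI-H1975 cells in log phase were allowed to adhere for 24 h, then treated with compound in triplicate for 72 h. Cells were TCA-fixed and SRB-stained, with OD read at 515 nm; IC50 derived from growth inhibition versus DMSO control.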

T1 sequence (P00533 25-1210): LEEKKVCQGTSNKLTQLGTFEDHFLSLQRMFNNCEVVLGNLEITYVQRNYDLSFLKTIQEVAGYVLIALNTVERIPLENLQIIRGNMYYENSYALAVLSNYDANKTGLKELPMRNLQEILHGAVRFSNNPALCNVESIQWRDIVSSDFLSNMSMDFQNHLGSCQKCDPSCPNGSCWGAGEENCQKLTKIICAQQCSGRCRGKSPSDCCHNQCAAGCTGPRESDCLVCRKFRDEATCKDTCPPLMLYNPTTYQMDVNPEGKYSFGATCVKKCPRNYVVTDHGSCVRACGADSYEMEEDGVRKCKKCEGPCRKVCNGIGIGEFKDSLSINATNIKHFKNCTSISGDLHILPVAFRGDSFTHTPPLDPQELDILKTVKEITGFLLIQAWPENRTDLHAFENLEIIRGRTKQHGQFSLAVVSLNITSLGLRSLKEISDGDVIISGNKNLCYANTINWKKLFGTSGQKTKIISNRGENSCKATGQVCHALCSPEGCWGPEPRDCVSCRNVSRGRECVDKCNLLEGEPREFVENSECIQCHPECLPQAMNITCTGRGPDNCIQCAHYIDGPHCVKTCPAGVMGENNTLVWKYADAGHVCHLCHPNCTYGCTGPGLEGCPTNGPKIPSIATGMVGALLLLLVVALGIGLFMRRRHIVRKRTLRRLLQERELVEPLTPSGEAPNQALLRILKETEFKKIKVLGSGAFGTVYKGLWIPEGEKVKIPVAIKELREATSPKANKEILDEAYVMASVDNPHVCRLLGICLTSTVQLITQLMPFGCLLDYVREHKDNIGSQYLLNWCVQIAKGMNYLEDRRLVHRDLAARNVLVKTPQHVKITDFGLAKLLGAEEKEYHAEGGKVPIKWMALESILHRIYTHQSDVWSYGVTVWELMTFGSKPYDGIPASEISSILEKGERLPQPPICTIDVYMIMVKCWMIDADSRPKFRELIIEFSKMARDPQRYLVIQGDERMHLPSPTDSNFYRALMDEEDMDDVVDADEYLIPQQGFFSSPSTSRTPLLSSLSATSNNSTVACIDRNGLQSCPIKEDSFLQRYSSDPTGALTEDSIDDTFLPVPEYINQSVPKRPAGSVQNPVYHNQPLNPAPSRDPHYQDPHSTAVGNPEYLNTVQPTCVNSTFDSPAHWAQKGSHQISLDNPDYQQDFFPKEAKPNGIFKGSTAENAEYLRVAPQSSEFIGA
T2 sequence (P08069 31-1367): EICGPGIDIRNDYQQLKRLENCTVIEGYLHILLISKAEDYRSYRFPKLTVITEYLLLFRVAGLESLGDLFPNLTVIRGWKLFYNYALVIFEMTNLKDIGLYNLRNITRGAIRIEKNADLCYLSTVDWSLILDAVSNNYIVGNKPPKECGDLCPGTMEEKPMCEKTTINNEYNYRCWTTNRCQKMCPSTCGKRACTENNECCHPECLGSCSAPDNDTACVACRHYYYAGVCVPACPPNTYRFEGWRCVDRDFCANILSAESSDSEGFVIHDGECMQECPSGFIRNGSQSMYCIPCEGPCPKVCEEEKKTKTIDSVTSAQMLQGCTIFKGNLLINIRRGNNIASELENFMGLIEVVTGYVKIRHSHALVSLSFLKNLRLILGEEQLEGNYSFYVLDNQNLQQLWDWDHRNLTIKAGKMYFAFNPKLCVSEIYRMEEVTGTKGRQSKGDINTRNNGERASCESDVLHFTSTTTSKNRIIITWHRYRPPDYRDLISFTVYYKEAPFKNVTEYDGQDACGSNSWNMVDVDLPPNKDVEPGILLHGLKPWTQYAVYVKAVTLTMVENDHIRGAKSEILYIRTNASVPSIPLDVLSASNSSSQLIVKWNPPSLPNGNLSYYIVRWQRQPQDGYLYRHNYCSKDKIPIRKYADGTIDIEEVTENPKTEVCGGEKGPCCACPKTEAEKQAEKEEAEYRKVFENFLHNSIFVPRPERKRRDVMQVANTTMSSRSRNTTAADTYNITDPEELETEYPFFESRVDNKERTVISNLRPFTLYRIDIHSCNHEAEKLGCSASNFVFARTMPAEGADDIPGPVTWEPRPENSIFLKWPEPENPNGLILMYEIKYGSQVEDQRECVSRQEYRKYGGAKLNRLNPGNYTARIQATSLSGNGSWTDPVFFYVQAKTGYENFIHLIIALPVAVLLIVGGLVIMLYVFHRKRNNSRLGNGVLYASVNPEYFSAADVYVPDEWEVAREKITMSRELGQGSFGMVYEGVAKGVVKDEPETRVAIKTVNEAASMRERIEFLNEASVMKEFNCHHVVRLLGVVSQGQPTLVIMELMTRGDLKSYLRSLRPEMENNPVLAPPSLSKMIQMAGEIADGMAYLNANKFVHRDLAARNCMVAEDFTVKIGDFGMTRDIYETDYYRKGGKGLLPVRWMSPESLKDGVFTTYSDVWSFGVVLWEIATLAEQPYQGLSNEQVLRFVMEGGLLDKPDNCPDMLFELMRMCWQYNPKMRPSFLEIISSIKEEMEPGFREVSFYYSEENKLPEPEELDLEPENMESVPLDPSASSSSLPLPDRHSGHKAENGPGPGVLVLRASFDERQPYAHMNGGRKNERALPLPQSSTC
T3 sequence (P00533 25-1210 T790M/L858R): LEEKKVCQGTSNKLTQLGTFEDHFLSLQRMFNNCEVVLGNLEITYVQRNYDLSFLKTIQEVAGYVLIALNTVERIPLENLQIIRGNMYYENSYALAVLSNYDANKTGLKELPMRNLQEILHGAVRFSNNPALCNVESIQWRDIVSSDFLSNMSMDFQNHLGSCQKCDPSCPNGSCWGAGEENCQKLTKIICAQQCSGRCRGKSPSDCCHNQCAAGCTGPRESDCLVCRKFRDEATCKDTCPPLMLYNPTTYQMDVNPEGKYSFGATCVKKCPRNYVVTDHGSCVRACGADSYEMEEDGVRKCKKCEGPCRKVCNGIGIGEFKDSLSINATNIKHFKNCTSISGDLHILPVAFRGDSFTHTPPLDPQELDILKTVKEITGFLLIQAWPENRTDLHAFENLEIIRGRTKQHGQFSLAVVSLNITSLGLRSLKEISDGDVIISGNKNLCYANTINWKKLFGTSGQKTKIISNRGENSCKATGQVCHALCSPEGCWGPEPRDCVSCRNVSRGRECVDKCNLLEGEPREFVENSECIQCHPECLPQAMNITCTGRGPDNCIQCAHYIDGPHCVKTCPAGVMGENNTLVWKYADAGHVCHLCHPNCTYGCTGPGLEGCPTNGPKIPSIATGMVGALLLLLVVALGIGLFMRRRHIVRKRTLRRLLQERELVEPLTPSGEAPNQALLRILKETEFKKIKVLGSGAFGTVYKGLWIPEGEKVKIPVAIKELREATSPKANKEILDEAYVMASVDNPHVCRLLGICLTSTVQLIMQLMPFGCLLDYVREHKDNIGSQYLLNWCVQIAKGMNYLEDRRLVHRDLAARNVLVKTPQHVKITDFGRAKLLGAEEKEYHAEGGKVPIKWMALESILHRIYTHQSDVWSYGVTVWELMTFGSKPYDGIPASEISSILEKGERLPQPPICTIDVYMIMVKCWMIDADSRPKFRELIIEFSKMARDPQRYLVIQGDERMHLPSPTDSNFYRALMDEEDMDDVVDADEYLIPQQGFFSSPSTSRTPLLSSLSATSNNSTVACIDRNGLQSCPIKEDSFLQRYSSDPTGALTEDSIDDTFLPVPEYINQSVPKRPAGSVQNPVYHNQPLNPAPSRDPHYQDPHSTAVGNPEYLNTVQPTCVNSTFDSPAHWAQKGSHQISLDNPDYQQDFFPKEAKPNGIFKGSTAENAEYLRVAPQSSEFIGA

| SMILES | IC50 (EGFR^wt) [µM] | IC50 (IGF-1R) [µM] | IC50 (EGFR^T790M/L858R) [µM] | IC50 [1] [µM] | IC50 [2] [µM] |
| --- | --- | --- | --- | --- | --- |
| C=CC(=O)Nc1cc(CN(C)C)cc(Nc2ncc(Cl)c(Nc3ccc4ccccc4c3)n2)c1 [CCB120081, N-((3-((5-chloro-4-((naphthalen-2-yl)amino))pyrimidin-2-yl)amino)-5-(dimethylaminomethyl)phenyl)acrylamide] | 0.17 | 0.0858 | 0.0051 | 0.037 | 0.016 |
| CCOc1ccc(NC(=O)/C=C/CN(C)C)cc1Nc1ncc(Cl)c(Nc2ccc3ccccc3c2)n1 [CCB145373, (E)-N-((3-((5-chloro-4-((naphthalen-2-yl)amino))pyrimidin-2-yl)amino)-4-ethoxyphenyl)-4-(dimethylamino)-2-butenamide] | 1.46 | 0.163 | 0.0256 | 6.26 | 1.18 |
| C=CC(=O)Nc1cc(Nc2ncc(Cl)c(Nc3ccc4ccccc4c3)n2)c(OC)cc1N1CC(N(C)C)C1 [CCB120138, N-((5-((5-chloro-4-((naphthalen-2-yl)amino))pyrimidin-2-yl)amino)-2-(3-dimethylaminoazetidin-1-yl)-4-methoxyphenyl)acrylamide] | 0.0043 | 0.426 | 0.0006 | 0.912 | 0.164 |
| CC(C)Oc1ccc(NC(=O)/C=C/CN(C)C)cc1Nc1ncc(Cl)c(Nc2ccc3ccccc3c2)n1 [CCB145384, (E)-N-((3-((5-chloro-4-((naphthalen-2-yl)amino))pyrimidin-2-yl)amino)-4-isopropoxyphenyl)-4-(dimethylamino)-2-butenamide] | 2.68 | 0.272 | 0.266 | 0.671 | 1.97 |
| COc1ccc(NC(=O)/C=C/CN(C)C)cc1Nc1ncc(Cl)c(Nc2ccc3[nH]ccc3c2)n1 [CCB145231, (E)-N-((3-((5-chloro-4-((indol-5-yl)amino))pyrimidin-2-yl)amino)-4-methoxyphenyl)-4-(dimethylamino)-2-butenamide] | 0.295 | 0.038 | 0.0308 | 0.615 | 0.289 |
